{
  "source": "patent US8138189B2",
  "about": "“Substituted benzene compounds as modulators of the glucocorticoid receptor” (Hoffman-La Roche Inc., priority 2009, dated 2012)",
  "biological_target": "T1, full length human recombinant glucocorticoid receptor (Homo sapiens, UniProt P04150)",
  "T1 construct": "partially purified full length human recombinant glucocorticoid receptor; purchased Panvera/Invitrogen PV4302",
  "T1 sequence (P04150 1-777)": "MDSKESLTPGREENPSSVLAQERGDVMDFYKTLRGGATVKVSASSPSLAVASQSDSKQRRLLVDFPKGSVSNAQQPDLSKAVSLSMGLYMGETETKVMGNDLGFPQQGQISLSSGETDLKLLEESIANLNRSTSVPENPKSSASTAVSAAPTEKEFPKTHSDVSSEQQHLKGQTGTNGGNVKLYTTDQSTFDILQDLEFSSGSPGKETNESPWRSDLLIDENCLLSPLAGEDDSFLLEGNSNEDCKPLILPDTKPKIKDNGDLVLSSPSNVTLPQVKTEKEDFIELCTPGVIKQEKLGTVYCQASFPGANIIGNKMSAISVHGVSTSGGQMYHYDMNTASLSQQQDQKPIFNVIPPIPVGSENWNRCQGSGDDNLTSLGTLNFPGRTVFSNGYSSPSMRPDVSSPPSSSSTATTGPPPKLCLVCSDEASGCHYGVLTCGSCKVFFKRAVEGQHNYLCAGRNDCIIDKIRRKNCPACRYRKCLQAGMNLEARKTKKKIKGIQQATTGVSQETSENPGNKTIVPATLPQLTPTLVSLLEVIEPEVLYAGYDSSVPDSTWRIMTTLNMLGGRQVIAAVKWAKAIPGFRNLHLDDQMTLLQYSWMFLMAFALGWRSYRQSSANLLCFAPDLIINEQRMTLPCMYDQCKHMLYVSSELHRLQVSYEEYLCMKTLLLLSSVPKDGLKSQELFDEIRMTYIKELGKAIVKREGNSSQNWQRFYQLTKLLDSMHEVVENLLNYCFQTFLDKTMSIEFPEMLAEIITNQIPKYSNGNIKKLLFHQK",
  "assay": "Glucocorticoid Receptor Binding Assay (fluorescence polarization competitor assay, Fluormone GS Far Red tracer)",
  "outline": "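Partially purified full-length recombinant human GR with a stabilizing coactivator peptide was incubated with Fluormone GS Far Red tracer and serially diluted compound for 3 h at 22 °C in the dark, pH 7.4. Fluorescence polarization was read at 610-660 nm. IC50 came from sigmoidal fitting, and Ki from Cheng-Prusoff.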",
  "data": [
    {"smiles": "Cc1cc([C@@](O)([C@@H](C)c2ccc(Oc3ncc(C(=O)O)c(C(F)(F)F)n3)cc2Cl)C(F)(F)F)cn(C)c1=O", "note": "(stereo in doubt) [Example 243, 2-{3-Chloro-4-[2-(1,5-dimethyl-6-oxo-1,6-dihydro-pyridin-3-yl)-3,3,3-trifluoro-2-hydroxy-1-methyl-propyl]-phenoxy}-4-trifluoromethyl-pyrimidine-5-carboxylic acid]", "values": [
      {"measurement": "Ki", "result": 1.8, "unit": "nM"}
    ]},
    {"smiles": "COC(=O)c1cnc(Oc2ccc([C@H](C)[C@](O)(c3cc(C)c(=O)n(C)c3)C(F)(F)F)c(Cl)c2)c(Cl)c1", "note": "(stereo in doubt) [Example 250, 5-Chloro-6-{3-chloro-4-[2-(1,5-dimethyl-6-oxo-1,6-dihydro-pyridin-3-yl)-3,3,3-trifluoro-2-hydroxy-1-methyl-propyl]-phenoxy}-nicotinic acid methyl ester]", "values": [
      {"measurement": "Ki", "result": 3, "unit": "nM"}
    ]},
    {"smiles": "Cc1cc([C@@](O)([C@@H](C)c2ccc(Oc3ncc(C(=O)O)cc3Cl)cc2Cl)C(F)(F)F)cn(C)c1=O", "note": "(stereo in doubt) [Example 251, 5-Chloro-6-{3-chloro-4-[2-(1,5-dimethyl-6-oxo-1,6-dihydro-pyridin-3-yl)-3,3,3-trifluoro-2-hydroxy-1-methyl-propyl]-phenoxy}-nicotinic acid]", "values": [
      {"measurement": "Ki", "result": 0.5, "unit": "nM"}
    ]},
    {"smiles": "Cc1cc([C@@](O)([C@@H](C)c2ccc(Oc3ncc(C(=O)O)cn3)cc2Cl)C(F)(F)F)cn(C)c1=O", "note": "(stereo in doubt) [Example 254, 2-{3-Chloro-4-[2-(1,5-dimethyl-6-oxo-1,6-dihydro-pyridin-3-yl)-3,3,3-trifluoro-2-hydroxy-1-methyl-propyl]-phenoxy}-pyrimidine-5-carboxylic acid]", "values": [
      {"measurement": "Ki", "result": 9.5, "unit": "nM"}
    ]},
    {"smiles": "Cc1nc(Oc2ccc([C@H](C)[C@](O)(c3cc(C)c(=O)n(C)c3)C(F)(F)F)c(Cl)c2)ccc1C(=O)O", "note": "(stereo in doubt) [Example 255, 6-{3-Chloro-4-[2-(1,5-dimethyl-6-oxo-1,6-dihydro-pyridin-3-yl)-3,3,3-trifluoro-2-hydroxy-1-methyl-propyl]-phenoxy}-2-methyl-nicotinic acid]", "values": [
      {"measurement": "Ki", "result": 3.6, "unit": "nM"}
    ]},
    {"smiles": "Cc1cnc(C(O)(C(C)c2ccc(OCc3ccc(C(=O)O)cc3)cc2Cl)C(F)(F)F)cn1", "note": "(stereo not drawn) [Example 2, 4-{3-Chloro-4-[3,3,3-trifluoro-2-hydroxy-1-methyl-2-(5-methyl-pyrazin-2-yl)-propyl]-phenoxymethyl}-benzoic acid]", "values": [
      {"measurement": "Ki", "result": 21.5, "unit": "nM"}
    ]},
    {"smiles": "COC(=O)c1cccc(COc2ccc(C(C)C(O)(c3cnc(C)cn3)C(F)(F)F)c(Cl)c2)c1", "note": "(stereo not drawn) [Example 3, 3-{3-Chloro-4-[3,3,3-trifluoro-2-hydroxy-1-methyl-2-(5-methyl-pyrazin-2-yl)-propyl]-phenoxymethyl}-benzoic acid methyl ester]", "values": [
      {"measurement": "Ki", "result": 52.7, "unit": "nM"}
    ]},
    {"smiles": "Cc1cnc(C(O)(C(C)c2ccc(OCc3cccc(C(=O)O)c3)cc2Cl)C(F)(F)F)cn1", "note": "(stereo not drawn) [Example 4, 3-{3-Chloro-4-[3,3,3-trifluoro-2-hydroxy-1-methyl-2-(5-methyl-pyrazin-2-yl)-propyl]-phenoxymethyl}-benzoic acid]", "values": [
      {"measurement": "Ki", "result": 175, "unit": "nM"}
    ]},
    {"smiles": "CCOC(=O)c1ccc(COc2ccc([C@@H](C)[C@@](O)(c3cnc(C)cn3)C(F)(F)F)c(Cl)c2)cc1", "note": "[Example 5, 4-{3-Chloro-4-[(1R,2R)-3,3,3-trifluoro-2-hydroxy-1-methyl-2-(5-methyl-pyrazin-2-yl)-propyl]-phenoxymethyl}-benzoic acid ethyl ester]", "values": [
      {"measurement": "Ki", "result": 418, "unit": "nM"}
    ]},
    {"smiles": "Cc1cnc([C@](O)([C@H](C)c2ccc(OCc3ccc(C(=O)O)cc3)cc2Cl)C(F)(F)F)cn1", "note": "[Example 6, 4-{3-Chloro-4-[(1R,2R)-3,3,3-trifluoro-2-hydroxy-1-methyl-2-(5-methyl-pyrazin-2-yl)-propyl]-phenoxymethyl}-benzoic acid]", "values": [
      {"measurement": "Ki", "result": 8.2, "unit": "nM"}
    ]},
    {"smiles": "COC(=O)c1ccc(OCCOc2ccc(C(C)C(O)(c3cnc(C)cn3)C(F)(F)F)c(Cl)c2)cc1", "note": "(stereo not drawn) [Example 9, 4-(2-{3-Chloro-4-[3,3,3-trifluoro-2-hydroxy-1-methyl-2-(5-methyl-pyrazin-2-yl)-propyl]-phenoxy}-ethoxy)-benzoic acid methyl ester]", "values": [
      {"measurement": "Ki", "result": 119, "unit": "nM"}
    ]},
    {"smiles": "Cc1cnc(C(O)(C(C)c2ccc(OCCOc3ccc(C(=O)O)cc3)cc2Cl)C(F)(F)F)cn1", "note": "(stereo not drawn) [Example 10, 4-(2-{3-Chloro-4-[3,3,3-trifluoro-2-hydroxy-1-methyl-2-(5-methyl-pyrazin-2-yl)-propyl]-phenoxy}-ethoxy)-benzoic acid]", "values": [
      {"measurement": "Ki", "result": 307, "unit": "nM"}
    ]},
    {"smiles": "Cc1cc(C(O)(C(C)c2ccc(Oc3ccc(C(=O)O)cc3)cc2Cl)C(F)(F)F)ccn1", "note": "(stereo not drawn) [Example 58, 4-{3-Chloro-4-[3,3,3-trifluoro-2-hydroxy-1-methyl-2-(2-methyl-pyridin-4-yl)-propyl]-phenoxy}-benzoic acid]", "values": [
      {"measurement": "Ki", "result": 2.4, "unit": "nM"}
    ]},
    {"smiles": "Cc1cc(C(O)(C(C)c2ccc(Oc3cccc(C(=O)O)c3)cc2Cl)C(F)(F)F)ccn1", "note": "(stereo not drawn) [Example 59, 3-{3-Chloro-4-[3,3,3-trifluoro-2-hydroxy-1-methyl-2-(2-methyl-pyridin-4-yl)-propyl]-phenoxy}-benzoic acid]", "values": [
      {"measurement": "Ki", "result": 11.2, "unit": "nM"}
    ]},
    {"smiles": "Cc1cc(C(O)(C(C)c2ccc(-c3cccc(C(=O)O)c3)cc2Cl)C(F)(F)F)ccn1", "note": "(stereo not drawn) [Example 61, 3′-Chloro-4′-[3,3,3-trifluoro-2-hydroxy-1-methyl-2-(2-methyl-pyridin-4-yl)-propyl]-biphenyl-3-carboxylic acid]", "values": [
      {"measurement": "Ki", "result": 4.9, "unit": "nM"}
    ]},
    {"smiles": "Cc1cc(C(O)(C(C)c2ccc(-c3ccc(C(=O)O)cn3)cc2Cl)C(F)(F)F)ccn1", "note": "(stereo not drawn) [Example 62, 6-{3-Chloro-4-[3,3,3-trifluoro-2-hydroxy-1-methyl-2-(2-methyl-pyridin-4-yl)-propyl]-phenyl}-nicotinic acid]", "values": [
      {"measurement": "Ki", "result": 335, "unit": "nM"}
    ]},
    {"smiles": "Cc1cc(C(O)(C(C)c2ccc(-c3cccc(CC(=O)O)c3)cc2Cl)C(F)(F)F)ccn1", "note": "(stereo not drawn) [Example 63, {3′-Chloro-4′-[3,3,3-trifluoro-2-hydroxy-1-methyl-2-(2-methyl-pyridin-4-yl)-propyl]-biphenyl-3-yl}-acetic acid]", "values": [
      {"measurement": "Ki", "result": 6.4, "unit": "nM"}
    ]},
    {"smiles": "Cc1cc(C(O)(C(C)c2ccc(-c3ccc(CC(=O)O)cc3)cc2Cl)C(F)(F)F)ccn1", "note": "(stereo not drawn) [Example 64, {3′-Chloro-4′-[3,3,3-trifluoro-2-hydroxy-1-methyl-2-(2-methyl-pyridin-4-yl)-propyl]-biphenyl-4-yl}-acetic acid]", "values": [
      {"measurement": "Ki", "result": 66.3, "unit": "nM"}
    ]},
    {"smiles": "Cc1cc(C(O)(C(C)c2ccc(-c3ccc(C(=O)O)nc3)cc2Cl)C(F)(F)F)ccn1", "note": "(stereo not drawn) [Example 65, 5-{3-Chloro-4-[3,3,3-trifluoro-2-hydroxy-1-methyl-2-(2-methyl-pyridin-4-yl)-propyl]-phenyl}-pyridine-2-carboxylic acid]", "values": [
      {"measurement": "Ki", "result": 214, "unit": "nM"}
    ]},
    {"smiles": "Cc1cc(C(O)(C(C)c2ccc(/C=C/c3ccc(C(=O)O)cc3)cc2Cl)C(F)(F)F)ccn1", "note": "(stereo not drawn) [Example 66, 4-((E)-2-{3-Chloro-4-[3,3,3-trifluoro-2-hydroxy-1-methyl-2-(2-methyl-pyridin-4-yl)-propyl]-phenyl}-vinyl)-benzoic acid]", "values": [
      {"measurement": "Ki", "result": 4.4, "unit": "nM"}
    ]},
    {"smiles": "Cc1cc(C(O)(C(C)c2ccc(CCc3ccc(C(=O)O)cc3)cc2Cl)C(F)(F)F)ccn1", "note": "(stereo not drawn) [Example 67, 4-(2-{3-Chloro-4-[3,3,3-trifluoro-2-hydroxy-1-methyl-2-(2-methyl-pyridin-4-yl)-propyl]-phenyl}-ethyl)-benzoic acid]", "values": [
      {"measurement": "Ki", "result": 24.4, "unit": "nM"}
    ]},
    {"smiles": "CC(c1ccc(NC(=O)c2ccc(C(=O)O)cc2)cc1Cl)C(O)(c1ccnc(Cl)c1)C(F)(F)F", "note": "(stereo not drawn) [Example 69, N-{3-Chloro-4-[2-(2-chloro-pyridin-4-yl)-3,3,3-trifluoro-2-hydroxy-1-methyl-propyl]-phenyl}-terephthalamic acid]", "values": [
      {"measurement": "Ki", "result": 116, "unit": "nM"}
    ]},
    {"smiles": "CC(c1ccc(NC(=O)c2cccc(C(=O)O)c2)cc1Cl)C(O)(c1ccnc(Cl)c1)C(F)(F)F", "note": "(stereo not drawn) [Example 70, N-{3-Chloro-4-[2-(2-chloro-pyridin-4-yl)-3,3,3-trifluoro-2-hydroxy-1-methyl-propyl]-phenyl}-isophthalamic acid]", "values": [
      {"measurement": "Ki", "result": 315, "unit": "nM"}
    ]},
    {"smiles": "CC(c1ccc(NC(=O)c2cccc(CC(=O)O)c2)cc1Cl)C(O)(c1ccnc(Cl)c1)C(F)(F)F", "note": "(stereo not drawn) [Example 73, (3-{3-Chloro-4-[2-(2-chloro-pyridin-4-yl)-3,3,3-trifluoro-2-hydroxy-1-methyl-propyl]-phenylcarbamoyl}-phenyl)-acetic acid]", "values": [
      {"measurement": "Ki", "result": 93.5, "unit": "nM"}
    ]},
    {"smiles": "CC(c1ccc(NS(=O)(=O)c2ccc(C(=O)O)cc2)cc1Cl)C(O)(c1ccnc(Cl)c1)C(F)(F)F", "note": "(stereo not drawn) [Example 76, 4-{3-Chloro-4-[2-(2-chloro-pyridin-4-yl)-3,3,3-trifluoro-2-hydroxy-1-methyl-propyl]-phenylsulfamoyl}-benzoic acid]", "values": [
      {"measurement": "Ki", "result": 178, "unit": "nM"}
    ]},
    {"smiles": "CC(c1ccc(Nc2ccc(C(=O)O)cc2)cc1Cl)C(O)(c1ccnc(Cl)c1)C(F)(F)F", "note": "(stereo not drawn) [Example 77, 4-{3-Chloro-4-[2-(2-chloro-pyridin-4-yl)-3,3,3-trifluoro-2-hydroxy-1-methyl-propyl]-phenylamino}-benzoic acid]", "values": [
      {"measurement": "Ki", "result": 13.9, "unit": "nM"}
    ]},
    {"smiles": "CC(c1ccc(N(c2ccc(C(=O)O)cn2)c2ccc(C(=O)O)cn2)cc1Cl)C(O)(c1ccnc(Cl)c1)C(F)(F)F", "note": "(stereo not drawn) [Example 78, 6,6′-(3-Chloro-4-(3-(2-chloropyridin-4-yl)-4,4,4-trifluoro-3-hydroxybutan-2-yl)phenylazanediyl)dinicotinic acid]", "values": [
      {"measurement": "Ki", "result": 76.7, "unit": "nM"}
    ]}
  ]
}
